Data published in US20130059879A1, “Small Molecule Inhibitors of PFKFB3 and Glycolytic Flux and Their Methods of Use as Anti-Cancer Therapeutics” (UNIVERSITY OF LOUISVILLE RESEARCH FOUNDATION, INC., priority 2010, published 2013).
pIC50: −log10 of the molar value. Converted amounts (≈) assume the structure as drawn. Like-named read-outs stand apart in the source and are kept apart here.

Columns and labels:
[1] = Microsomal stability in human liver microsomes; format: in vitro ADME
Protocol: Microsomal stability in vitro in different biologic media (liver microsomes, S9 fraction, hepatocytes) and species is ascertained to evaluate the rate at which a compound undergoes metabolism in the experimental in vitro conditions. Results for some compounds of the invention after a 60 minutes incubation period in human liver microsomes are shown in the Table 6 below. […] Experimental conditions are briefly described here: the stability in human liver microsomes of several compounds was done over […] at 37° C. using pooled mixed gender human liver microsomes. These liver microsomes were prepared at 1.0 mg/ml of microsomal protein in a 100 mM potassium phosphate pH 7.4 buffer with 1 mM NADPH. The media was incubated at 37° C. with the compound in solution in DMSO. The concentration of the compound was followed by LC/MS-MS as a function of time. Samples were assayed at t=0, 15, 30, and 60 minutes. Testosterone was used as a positive control. The same experiment was performed with mouse, rat or dog liver microsomes instead of human liver microsomes.

NCI-H82 = assay: Cancer cell proliferation, Alamar Blue assay, 72 hours; format: cell-based; conditions: Homo sapiens, NCI-H82, read-out: IC50 NCl-H82
Protocol: (§1) The ability of the compounds described herein to kill or inhibit the proliferation of cancer cells was measured using either the MTT assay, or the Alamar Blue assay, or the Cell Titer Glow® assay using 48 or 72 hours exposure. […] The procedures are briefly described below. Cells of the desired tumor cell line were plated at 2×10^5 cells/ml in 96 well plates. Twice the indicated concentrations of the compounds of the invention were added to cells the following day in an equal volume of media. 72 hours later, cells were lysed and subjected to ATP determination using the CellTiter Glo-Luminescent Cell Viability Assay kit (Promega, Madison, Wis.). Experiments were done in triplicate. When using the MTT assay or the Alamar blue assay, the experimental conditions are essentially similar; at the end of the incubation period, 20 microliters of the MTT solution is added per well and the samples are incubated for an additional four hours, rinsed, and the absorbance at 570 nm measured. […] Table 2 lists the IC50 values for the compounds of the invention in several cell lines including Jurkat, Calu-6, NCI-H82, U937, HCT-116, and MDA-MB-231 cancer cell lines.

HCT-116 = assay: as above; format: cell-based; conditions: Homo sapiens, HCT-116
Protocol: as §1

Calu-6 = assay: as above; format: cell-based; conditions: Homo sapiens, Calu-6
Protocol: as §1

U937 = assay: as above; format: cell-based; conditions: Homo sapiens, U-937
Protocol: as §1

Jurkat = assay: as above; format: cell-based; conditions: Homo sapiens, Jurkat
Protocol: as §1

MDA-MB-231 = assay: as above; format: cell-based; conditions: Homo sapiens
Protocol: as §1

PFKFB3 = molecular target: T1, PFKFB3 (Homo sapiens, UniProt Q16875); assay: Inhibition of recombinant PFKFB3 kinase activity (ADP Glow assay); format: biochemical; conditions: 250 nM analog concentration; read-out: % Inhibition of PFKFB3 Enzymatic Activity
T1 construct: GST
T1 sequence (Q16875 whole entry, species assumed): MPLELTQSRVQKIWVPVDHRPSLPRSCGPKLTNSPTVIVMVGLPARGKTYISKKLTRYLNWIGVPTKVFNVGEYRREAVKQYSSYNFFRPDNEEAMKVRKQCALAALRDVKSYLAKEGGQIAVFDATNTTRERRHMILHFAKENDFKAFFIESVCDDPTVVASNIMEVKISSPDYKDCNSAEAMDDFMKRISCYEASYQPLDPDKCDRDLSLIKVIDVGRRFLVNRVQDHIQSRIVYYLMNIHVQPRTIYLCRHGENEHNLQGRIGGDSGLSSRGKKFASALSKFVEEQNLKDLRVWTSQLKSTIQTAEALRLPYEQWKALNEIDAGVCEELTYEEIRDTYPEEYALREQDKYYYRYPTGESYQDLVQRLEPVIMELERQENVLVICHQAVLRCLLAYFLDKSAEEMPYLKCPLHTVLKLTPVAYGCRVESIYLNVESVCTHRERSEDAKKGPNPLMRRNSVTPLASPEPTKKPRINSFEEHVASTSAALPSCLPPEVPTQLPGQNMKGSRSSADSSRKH
Protocol: PFKFB3 was prepared by expression in E. coli and purified by GST column and column chromatography. […] The recombinant protein was pure and active as determined by the results of a kinase activity assay commercially available (such as ADP Glow® assay, […]). The same assay was used to determine the inhibition of the protein and the results are shown in Table 5 below (IC50 values or percent inhibition at a fixed concentration). Results confirmed that the compounds of the invention have low nanomolar IC50 values, interacting with PFKFB3 and inhibiting its enzymatic activity.

[2] = Solubility in solvents and excipients, 1 hour at room temperature, HPLC; format: physicochemical; conditions: thermodynamic from solid
Protocol: Chemical properties of the compounds of the invention were investigated, including the solubility in several solvents and pharmaceutically accepted excipients. […] Briefly, selected compounds of the invention are dissolved in a small volume of the solvents/excipients of interest at room temperature over 1 hour in typically 1 ml and the concentration is measured by HPLC after filtration.

Jurkat cells = assay: Inhibition of 14C-2-deoxyglucose uptake; format: cell-based; conditions: Homo sapiens, 3 hours
Protocol: Inhibition of PFKFB3 results in inhibiting glycolysis. Several feedback or feedforward activation and inhibition mechanisms exist so that, by a feedback mechanism, inhibiting the activity of PFKFB3 may inhibit glucose uptake by cells. An assay was developed to determine if there was inhibition of glucose uptake following exposure to the compounds on the invention. Briefly, Jurkat cells were plated at 1×10^5/mL in RPM′ 1640 supplemented with 10% fetal bovine serum and 50 μg/mL gentamicin sulfate. Cells were immediately treated with vehicle or 5 μmol/L of the compound of the invention for 3 hours and subsequently placed in glucose-free RPMI 1640 for 30 min. ^14C-2-deoxyglucose (0.25 μCi/mL; Perkin Elmer) was added for an additional 60 min and cells were then washed three with ice-cold RPMI 1640 containing no glucose. Cell lysates were collected in 500 μL of 0.1% SDS, and scintillation counts (counts/min) were measured on 400 μL of lysate. Counts were normalized to protein concentration.

[3] = 60 min incubation, 1.0 mg/ml microsomal protein, 1 mM NADPH, 37° C.
[4] = aqueous with cosolvent or surfactant or cyclodextrin, Cre:EtOH:Saline 5:5:90 mixture, 1 hour at room temperature, read-out: Solubility Cre:EtOH:Saline
[5] = ethanol, organic solvent or mixture, EtOH, 1 hour at room temperature, read-out: Solubility EtOH
[6] = organic solvent or mixture, 1:1 cremophor EL-P:ethanol mixture, 1 hour at room temperature, read-out: Solubility Cre:EtOH
[7] = organic solvent or mixture, Acetone, 1 hour at room temperature, read-out: Solubility Acetone
[8] = organic solvent or mixture, Cremophor, 1 hour at room temperature, read-out: Solubility Cremophor
[9] = organic solvent or mixture, DCM, 1 hour at room temperature, read-out: Solubility DCM
[10] = organic solvent or mixture, Tween 80, 1 hour at room temperature, read-out: Solubility Tween 80
[11] = organic solvent or mixture, Tween80:EtOH 6:4 mixture, 1 hour at room temperature, read-out: Solubility Twee80:EtOH

SMILES	HLM, Mean metabolized (%) ([1]; 0 min)	HLM, Mean metabolized (%) [1, 3]	pIC50 (NCI-H82)	pIC50 (HCT-116)	pIC50 (Calu-6)	pIC50 (U937)	pIC50 (Jurkat)	pIC50 (MDA-MB-231)	inhibition at 0.25 µM (PFKFB3)	solubility at 1 h [2, 4]	solubility at 1 h [2, 5]	solubility at 1 h [2, 6]	solubility at 1 h [2, 7]	solubility at 1 h [2, 8]	solubility at 1 h [2, 9]	solubility at 1 h [2, 10]	solubility at 1 h [2, 11]	inhibition at 5 µM (Jurkat cells)
O=C(c1ccncc1)c1cc2c(cc(F)c3ccccc32)[nH]1 [ACT-PFK-118, (5-Fluoro-3H-benzo[e]indol-2-yl)-pyridin-4-yl-methanone]	0.0%	22.2%	6.41	5.77	6.38	7.02	6.62	6.17	0%	100 µg/mL (≈ 0.344 mM)	200 µg/mL (≈ 0.689 mM)	1000 µg/mL (≈ 3.44 mM)	600 µg/mL (≈ 2.07 mM)	2200 µg/mL (≈ 7.58 mM)	300 µg/mL (≈ 1.03 mM)	1600 µg/mL (≈ 5.51 mM)	1300 µg/mL (≈ 4.48 mM)	
COc1cc(C(=O)c2cc3c(ccc4ccccc43)[nH]2)ccc1OCc1ccccc1 [ACT-PFK-109, (3H-Benzo[e]indol-2-yl)-(4-benzyloxy-3-methoxy-phenyl)-methanone]			< 4.00	< 4.00	4.19	< 4.00	< 4.00	< 4.00										42%
COc1ccccc1C(=O)c1cc2c(ccc3ccccc32)[nH]1 [ACT-PFK-098, (3H-Benzo[e]indol-2-yl)-(2-methoxy-phenyl)-methanone]			6.68	6.31	6.66	7.40	6.39			2400 µg/mL (≈ 7.96 mM)	4600 µg/mL (≈ 15.3 mM)	29000 µg/mL (≈ 96.2 mM)	9300 µg/mL (≈ 30.9 mM)	30200 µg/mL (≈ 100 mM)	10400 µg/mL (≈ 34.5 mM)	37000 µg/mL (≈ 123 mM)	32800 µg/mL (≈ 109 mM)	25%
COc1cccc(C(=O)c2cc3c(ccc4ccccc43)[nH]2)c1 [ACT-PFK-096, (3H-Benzo[e]indol-2-yl)-(3-methoxy-phenyl)-methanone]	0.0%	99%	6.81	6.16	7.70	7.85	5.82		0%	1700 µg/mL (≈ 5.64 mM)	2800 µg/mL (≈ 9.29 mM)	29700 µg/mL (≈ 98.6 mM)	25800 µg/mL (≈ 85.6 mM)	1200 µg/mL (≈ 3.98 mM)	8900 µg/mL (≈ 29.5 mM)	1800 µg/mL (≈ 5.97 mM)	18700 µg/mL (≈ 62.1 mM)	29%
O=C(c1ccnc(Cl)c1)c1cc2c(ccc3ccccc32)[nH]1 [ACT-PFK-105, (3H-benzo[e]indol-2-yl)-(2-chloro-pyridin-4-yl)-methanone]	0.0%	51.4%	6.40	6.45	6.85	7.15	6.94	5.13										
Cc1ccc(C(=O)c2cc3c(ccc4ccccc43)[nH]2)cc1 [ACT-PFK-123, (3H-Benzo[e]indol-2-yl)-p-tolyl-methanone]			6.50		7.10		7.00		19.4%									
COc1cccc(C(=O)c2cc3c(cc(F)c4ccccc43)[nH]2)c1 [ACT-PFK-116, (5-Fluoro-3H-benzo[e]indol-2-yl)-(3-methoxy-phenyl)-methanone]	0.0%	45.8%	6.69	6.63	7.10	7.52	6.90	6.25	34.2%	700 µg/mL (≈ 2.19 mM)	1300 µg/mL (≈ 4.07 mM)	8600 µg/mL (≈ 26.9 mM)	6200 µg/mL (≈ 19.4 mM)	14400 µg/mL (≈ 45.1 mM)	6000 µg/mL (≈ 18.8 mM)	15500 µg/mL (≈ 48.5 mM)	10200 µg/mL (≈ 31.9 mM)	0%
O=C(O)c1ccc(C(=O)c2cc3c(ccc4ccccc43)[nH]2)cc1 [ACT-PFK-111, 4-(3H-Benzo[e]indole-2-carbonyl)-benzoic acid]			4.40	4.20	4.24	4.24	< 4.00	< 4.00	54.3%									
COc1cc(C(=O)c2cc3c(cc(F)c4ccccc43)[nH]2)ccc1O [ACT-PFK-119, (5-Fluoro-3H-benzo[e]indol-2-yl)-(4-hydroxy-3-methoxy-phenyl)-methanone]	0.0%	79.2%	6.50	6.44	7.15	7.15	6.96	6.21	3.7%	300 µg/mL (≈ 0.895 mM)	1000 µg/mL (≈ 2.98 mM)	6100 µg/mL (≈ 18.2 mM)	5500 µg/mL (≈ 16.4 mM)	14400 µg/mL (≈ 42.9 mM)	700 µg/mL (≈ 2.09 mM)	11400 µg/mL (≈ 34 mM)	8600 µg/mL (≈ 25.6 mM)	
COc1cc(C(=O)c2cc3c(ccc4ccccc43)[nH]2)ccc1O [ACT-PFK-108, (3H-Benzo[e]indol-2-yl)-(4-hydroxy-3-methoxylthenyl)-methanone]	0.0%	73.3%	6.44	6.32	6.44	6.69	6.26	7.05		4800 µg/mL (≈ 15.1 mM)	9900 µg/mL (≈ 31.2 mM)	78100 µg/mL (≈ 246 mM)	12800 µg/mL (≈ 40.3 mM)	37600 µg/mL (≈ 118 mM)	11100 µg/mL (≈ 35 mM)	16900 µg/mL (≈ 53.3 mM)	10300 µg/mL (≈ 32.5 mM)	2%
O=C(c1ccc(O)cc1)c1cc2c(ccc3ccccc32)[nH]1 [ACT-PFK-100, (3H-Benzo[e]indol-2-yl)-(4-hydroxy-phenyl)-methanone]									0%									
